Measured values: US20140147860A1, “Acoustic Cytometry Methods and Protocols” (LIFE TECHNOLOGIES CORPORATION, priority 2011, published 2014)

Assays:
S. aureus cells = assay: Relative membrane potential in an S. aureus culture, BacLight Bacterial Membrane Potential Kit (DiOC2), flow cytometry; type: cell-based, Staphylococcus aureus; details: SYTOX Blue-positive dead cells excluded, data not shown
[1] = system: Jurkat cells (T-cell leukemia, human); assay: Apoptosis detection with the Annexin V Dead Cell Apoptosis Kit by acoustic flow cytometry; type: cell-based; details: 10 μM camptothecin for 4 hr, Annexin V staining, 488 nm excitation
Description: Apoptotic plasma membrane assays for flow cytometry: Some of the earliest detectable apoptotic events involve the plasma membrane, including changes in membrane asymmetry and permeability. In addition to annexin V conjugates, Life Technologies provides unique assays to measure membrane changes under conditions where annexin V binding is problematic, such as in adherent cells, and without using special buffers. Annexin V conjugates In apoptotic cells, phosphatidylserine (PS) is translocated from the inner to the outer leaflet of the plasma membrane, thus exposing PS to the external cellular environment. Annexin V labeled with a fluorophore can identify apoptotic cells by binding to PS exposed on the outer leaflet of the membrane. The Alexa Fluor® series of dyes, used in Life Technologies Annexin V Dead Cell Apoptosis Kits provides brighter and more photostable bioconjugates than other organic dyes with similar spectral characteristics. Apoptosis detection with the Annexin V Dead Cell Apoptosis Kit. Jurkat cells (T-cell leukemia, human) treated with 10 μM camptothecin for 4 hr (B) or untreated control (A). Cells were stained using the Annexin V Dead Cell Apoptosis Kit and analyzed by flow cytometry with 488 nm excitation on the Attune® Acoustic Focusing Cytometer with 530/30 Xnm and 575/24 nm bandpass filters. Data were acquired with a standard 100 XμL/min collection rate. […]

| Compound | red-shifted DiOC2 fluorescence (membrane potential), treated versus untreated sample (S. aureus cells) | percentage of apoptotic cells versus untreated control [1] |
| --- | --- | --- |
| N#CC(C#N)=NNc1cccc(Cl)c1 [CCCP, carbonylcyanide 3-chlorophenylhydrazone] | increased red-shifted DiOC2 fluorescence in the untreated sample (−CCCP, green) as compared to the CCCP-treated sample |  |
| CC[C@@]1(O)C(=O)OCc2c1cc1n(c2=O)Cc2cc3ccccc3nc2-1 [camptothecin] |  | higher percentage of apoptotic cells |
